# Literature values, collected in PMC9479156 (Frontiers in Pharmacology, 2022).
# How the values were obtained:
# [1] = tested on: late stage IV-V P. falciparum NF54 gametocytes; design: method as in Coertzen et al., 2018, Wong et al., 2019; conditions: ref Coertzen et al., 2018, Wong et al., 2019, cited from earlier work
# A375 melanoma cells = tested on: A375 melanoma cells; design: method as in Wong et al., 2020; conditions: ref Wong et al., 2020; cited from earlier work
smiles,measurement,setting,value
"C[C@H]1[C@H](N2CCS(=O)(=O)CC2)O[C@@H]2O[C@@]3(C)CC[C@H]4[C@H](C)CC[C@@H]1[C@@]24OO3 [Artemisone, artemisone]",IC50,"[1]; NF54 gametocytes, luciferase, 72 h, mean ± SEM, read-out: Late stage IV-V (luc 72 h) IC50",0.0424 ± 0.0033 µM
same,Fold change preference ratio LG to EG,[1]; late vs immature stage gametocytes,0.05
same,IC50,A375 melanoma cells,95.7 µM
